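The compound was tested at five concentrations on cells cultured in 96-well plates, with a 48-hour exposure period. Here, GI50 denotes the concentration required for 50% inhibition of growth.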 Calls of active or inactive are those of the source. No stated cut-off is given here; in the data, active = GI50 up to about 1.1 µM and inactive = higher.
What was measured:
Assay in all cases: NCI-60 cell line screen, 48 h
U-251 = test system: U-251
MDA-MB-435 = test system: MDA-MB-435
NCI/ADR-RES = test system: NCI/ADR-RES
SF-295 = test system: SF-295
OVCAR-8 = test system: OVCAR-8
SW-620 = test system: SW-620
HCT-116 = test system: HCT-116
CCRF-CEM = test system: CCRF-CEM
SN12C = test system: SN12C
HCC 2998 = test system: HCC 2998
A549 = test system: A549
RPMI-8226 = test system: RPMI-8226
Malme-3M = test system: Malme-3M
HOP-62 = test system: HOP-62
SF-539 = test system: SF-539
NCI-H460 = test system: NCI-H460
OVCAR-5 = test system: OVCAR-5
SNB-19 = test system: SNB-19
M14 = test system: M14
DU-145 = test system: DU-145
OVCAR-4 = test system: OVCAR-4
SK-MEL-28 = test system: SK-MEL-28
ACHN = test system: ACHN
EKVX = test system: EKVX
A498 = test system: A498
CAKI-1 = test system: CAKI-1
MDA-N = test system: MDA-N
SK-OV-3 = test system: SK-OV-3
MDA-MB-231 = test system: MDA-MB-231
TK-10 = test system: TK-10
SF-268 = test system: SF-268
PC-3 = test system: PC-3
HCT-15 = test system: HCT-15
RXF 393 = test system: RXF 393
LOX IMVI = test system: LOX IMVI
T47D = test system: T47D
HL-60 = test system: HL-60
UACC-62 = test system: UACC-62
BT-549 = test system: BT-549
NCI-H522 = test system: NCI-H522
OVCAR-3 = test system: OVCAR-3
Hs-578T = test system: Hs-578T
NCI-H23 = test system: NCI-H23
786-0 = test system: 786-0
MCF7 = test system: MCF7
HT-29 = test system: HT-29
COLO 205 = test system: COLO 205
IGROV-1 = test system: IGROV-1
MOLT-4 = test system: MOLT-4
SK-MEL-5 = test system: SK-MEL-5
SK-MEL-2 = test system: SK-MEL-2
KM12 = test system: KM12
UACC-257 = test system: UACC-257
SNB-75 = test system: SNB-75
UO-31 = test system: UO-31
K562 = test system: K562
SR = test system: SR
HOP-92 = test system: HOP-92
NCI-H226 = test system: NCI-H226

CC(C)=c1sc(=C(C)C)c2c1=NC(C)(C)N=2
GI50 (U-251): 46 µM (inactive)
GI50 (MDA-MB-435): > 100 µM (inactive)
GI50 (NCI/ADR-RES): > 100 µM (inactive)
GI50 (SF-295): 75.5 µM (inactive)
GI50 (OVCAR-8): 94 µM (inactive)
GI50 (SW-620): 72.6 µM (inactive)
GI50 (HCT-116): 50.5 µM (inactive)
GI50 (CCRF-CEM): 44.3 µM (inactive)
GI50 (SN12C): 58.5 µM (inactive)
GI50 (HCC 2998): 27.5 µM (inactive)
GI50 (A549): 51.5 µM (inactive)
GI50 (RPMI-8226): 37.2 µM (inactive)
GI50 (Malme-3M): > 100 µM (inactive)
GI50 (HOP-62): > 100 µM (inactive)
GI50 (SF-539): > 100 µM (inactive)
GI50 (NCI-H460): 43.7 µM (inactive)
GI50 (OVCAR-5): 36.5 µM (inactive)
GI50 (SNB-19): > 100 µM (inactive)
GI50 (M14): 77.4 µM (inactive)
GI50 (DU-145): 58.3 µM (inactive)
GI50 (OVCAR-4): > 100 µM (inactive)
GI50 (SK-MEL-28): 73.6 µM (inactive)
GI50 (ACHN): 37.5 µM (inactive)
GI50 (EKVX): 57.9 µM (inactive)
GI50 (A498): 87.5 µM (inactive)
GI50 (CAKI-1): 77.1 µM (inactive)
GI50 (MDA-N): 65.6 µM (inactive)
GI50 (SK-OV-3): > 100 µM (inactive)
GI50 (MDA-MB-231): > 100 µM (inactive)
GI50 (TK-10): > 100 µM (inactive)
GI50 (SF-268): 64.9 µM (inactive)
GI50 (PC-3): 45.9 µM (inactive)
GI50 (HCT-15): 47.8 µM
GI50 (RXF 393): > 100 µM (inactive)
GI50 (LOX IMVI): 27 µM (inactive)
GI50 (T47D): 52.8 µM (inactive)
GI50 (HL-60): 57.4 µM (inactive)
GI50 (UACC-62): 37.4 µM (inactive)
GI50 (BT-549): 67.3 µM (inactive)
GI50 (NCI-H522): 32.9 µM (inactive)
GI50 (OVCAR-3): 72.6 µM (inactive)
GI50 (Hs-578T): 53.6 µM (inactive)
GI50 (NCI-H23): 53.7 µM (inactive)
GI50 (786-0): > 100 µM (inactive)
GI50 (MCF7): 48.3 µM (inactive)
GI50 (HT-29): 74.6 µM (inactive)
GI50 (COLO 205): 87.3 µM (inactive)
GI50 (IGROV-1): 42.1 µM (inactive)
GI50 (MOLT-4): 42.4 µM (inactive)
GI50 (SK-MEL-5): 79.6 µM (inactive)
GI50 (SK-MEL-2): 26.7 µM (inactive)
GI50 (KM12): 78.9 µM (inactive)
GI50 (UACC-257): 30.9 µM (inactive)

O=C(NCCN1C(=O)CN=C(c2ccc(Cl)cc2)c2cc(Cl)ccc21)OCc1ccccc1
GI50 (U-251): 15.2 µM (inactive)
GI50 (MDA-MB-435): 15.1 µM (inactive)
GI50 (NCI/ADR-RES): 11.9 µM (inactive)
GI50 (SF-295): 13.7 µM (inactive)
GI50 (OVCAR-8): 16.3 µM (inactive)
GI50 (SW-620): 13.6 µM (inactive)
GI50 (HCT-116): 11.9 µM (inactive)
GI50 (CCRF-CEM): 11.7 µM (inactive)
GI50 (SN12C): 14.3 µM (inactive)
GI50 (HCC 2998): 14.3 µM (inactive)
GI50 (A549): 10.6 µM (inactive)
GI50 (RPMI-8226): 19.7 µM (inactive)
GI50 (SNB-75): 18.1 µM (inactive)
GI50 (Malme-3M): 16.8 µM (inactive)
GI50 (HOP-62): 19.8 µM (inactive)
GI50 (SF-539): 18.9 µM (inactive)
GI50 (NCI-H460): 13.4 µM (inactive)
GI50 (OVCAR-5): 19.2 µM (inactive)
GI50 (UO-31): 10.9 µM (inactive)
GI50 (SNB-19): 18.9 µM (inactive)
GI50 (M14): 16.4 µM (inactive)
GI50 (K562): 5.06 µM (inactive)
GI50 (DU-145): 18.2 µM (inactive)
GI50 (OVCAR-4): 8.71 µM (inactive)
GI50 (SK-MEL-28): 33.7 µM (inactive)
GI50 (ACHN): 16.3 µM (inactive)
GI50 (EKVX): 20.7 µM (inactive)
GI50 (A498): 11.2 µM (inactive)
GI50 (SR): 9.48 µM (inactive)
GI50 (CAKI-1): 14.2 µM (inactive)
GI50 (MDA-N): 16.5 µM (inactive)
GI50 (SK-OV-3): 52.2 µM (inactive)
GI50 (MDA-MB-231): 14.8 µM (inactive)
GI50 (TK-10): 16.7 µM (inactive)
GI50 (SF-268): 12.4 µM (inactive)
GI50 (PC-3): 11.5 µM (inactive)
GI50 (HCT-15): 13.4 µM
GI50 (RXF 393): 10.8 µM (inactive)
GI50 (LOX IMVI): 17.4 µM (inactive)
GI50 (T47D): 30.8 µM (inactive)
GI50 (HL-60): 10.1 µM (inactive)
GI50 (UACC-62): 14.8 µM (inactive)
GI50 (BT-549): 15.6 µM (inactive)
GI50 (NCI-H522): 15.5 µM (inactive)
GI50 (OVCAR-3): 12.6 µM (inactive)
GI50 (Hs-578T): 17.4 µM (inactive)
GI50 (HOP-92): 14.7 µM (inactive)
GI50 (NCI-H23): 14.1 µM (inactive)
GI50 (786-0): 14.7 µM (inactive)
GI50 (HT-29): 11.8 µM (inactive)
GI50 (COLO 205): 19.8 µM (inactive)
GI50 (IGROV-1): 15.3 µM (inactive)
GI50 (MOLT-4): 0.255 µM (active)
GI50 (SK-MEL-5): 15.2 µM (inactive)
GI50 (SK-MEL-2): 18.1 µM (inactive)
GI50 (KM12): 15.3 µM (inactive)
GI50 (UACC-257): 15.3 µM (inactive)
GI50 (NCI-H226): 15.6 µM (inactive)
